# Assay results published in paper PMC5478727, “A Novel Small Molecule GDNF Receptor RET Agonist, BT13, Promotes Neurite Growth from Sensory Neurons in Vitro and Attenuates Experimental Neuropathy in the Rat” (Frontiers in Pharmacology, 2017).
# B1: brain-derived neurotrophic factor (protein, UniProt P23560 19-247, looked up)
# Neurotrophic factor BDNF …: APMKEANIRGQGGLAYPGVRTHGTLESVNGPKAGSRGLTSLADTFEHVIEELLDEDQKVRPNEENNKDADLYTSRVMLSSQVPLEPPLLFLLEEYKNYLDAANMSMRVRRHSDPARRGELSVCDSISEWVTAADKKTAVDMSGGTVTVLEKVPVSKGQLKQYFYETKCNPMGYTKEGCRGIDKRHWNSQCRTTQSYVRALTMDSKKRIGWRFIRIDTSCVCTLTIKRGR
# notes: neurotrophin, natural ligand of TrkB
# Key:
# [1] = molecular target: T1, Protein Serine/Threonine Phosphatase, PP2A (Homo sapiens, UniProt P67775); test: CEREP Protein Serine/Threonine Phosphatase, PP2A; assay type: biochemical
# T1 construct: purchased CEREP (contract assay) 3953
# T1 sequence (P67775 whole entry): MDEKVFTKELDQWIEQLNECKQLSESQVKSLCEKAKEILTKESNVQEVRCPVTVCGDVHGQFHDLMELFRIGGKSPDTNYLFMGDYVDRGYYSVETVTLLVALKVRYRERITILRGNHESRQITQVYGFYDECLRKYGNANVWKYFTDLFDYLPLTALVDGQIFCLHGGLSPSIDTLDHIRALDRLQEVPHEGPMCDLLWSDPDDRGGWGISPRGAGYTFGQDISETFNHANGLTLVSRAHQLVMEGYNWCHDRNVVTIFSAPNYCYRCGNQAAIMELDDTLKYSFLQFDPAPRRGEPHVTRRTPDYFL
# [2] = system: Akt and Erk phosphorylation in MG87TrkA; test: Erk1/2 and Akt phosphorylation assay in MG87TrkA cells; assay type: cell-based, murine; settings: BT13 10–100 μM, NGF positive control
# Experimental: (§1) MG87RET, MG87TrkA, or MG87TrkB were plated on 35 mm tissue culture dishes 1–2 days before the experiment to achieve 90–95% of confluency of the cells at the day of stimulation with tested substances. If necessary, cells were transfected with 4 μg/well of GFRα1-, GFRα3-, or green fluorescent protein (GFP)-expressing plasmid using Lipofectamine 2000 (Invitrogen) for DNA delivery as described by manufacturer. Before the experiment cells were starved in serum-free DMEM containing 15 mM HEPES, pH 7.2 and 1% DMSO for 4 h and stimulated with BT13 or neurotrophic factors. Then cells were washed once with ice-cold PBS containing 1 mM Na3VO4 and 1 mM NaF and lysed on ice in 1 ml per well of RIPA-modified buffer (50 mM Tris-HCl, pH 7.4, 150 mM NaCl, 1 mM EDTA, 1% NP-40, 1% TX-100, 10% glycerol, EDTA-free protease inhibitor cocktail (Roche), 1 mM Na3VO4, 2.5 mg/ml of sodium deoxycholate, 1 mM NaF). Plates were incubated at +4°C on the horizontal shaker for 30 min with vigorous shaking. Afterwards, 80–100 μl aliquot was taken from each well to prepare whole cell lysates. This aliquot was mixed with equal volume of 2x Laemmli loading buffer (4% SDS, 20% glycerol, 10% 2-mercaptoethanol, 0.004% bromphenol blue, 0.125 M Tris HCl, pH 6.8) and boiled for 10 min at 100°C. Remaining cell lysates were used for immunoprecipitation of RET or Trk receptors. […]
# TrkA = TrkA phosphorylation assay in MG87TrkA cells; assay type: cell-based; settings: BT13 10–100 μM, NGF positive control
# Experimental: as §1
# [3] = system: adult rat lumbar DRG sensory neurons; test: Neurite outgrowth from cultured DRG neurons; assay type: cell-based; settings: NGF 10 ng/ml
# Experimental: Cultured lumbar DRG (L3–L5) neurons were prepared using a published method (O'Mullane et al., [2013]). After plating onto poly-L-ornithine (5 μg/ml)/laminin (5 μg/ml) coated coverslips for 1 h, DRG neurons were cultured for 24–30 h in fresh Neurobasal A/B27. GFLs, BT13, NGF, and vehicle control were added at the start of this period for a 24–30 h treatment, except when preceded by pre-treatment (1 h) with inhibitors (50 μM LY294002; 2 μM SU6656, […]; Biomol Research Laboratories, Plymouth Meeting, PA, USA). DRG neurons were then fixed (4% paraformaldehyde) and processed for immunocytochemistry with 1:200 Mouse anti-β III tubulin/AlexaFluor 594 (Sigma-Aldrich Cat# T8660 RRID:AB_477590) and 1:5,000 rabbit anti-calcitonin gene-related peptide/AlexaFluor 488 (Sigma-Aldrich Cat# C8198 RRID:AB_259091) and DAPI for nuclear staining (0.5 μg/ml, Molecular Probes). Image analysis of multichannel 12 bit Zeiss .ZVI or .TIF files (captured with a Zeiss Imager.M1/MRm camera/Zen software; Carl Zeiss Australia, North Ryde, NSW, Australia) was then performed by a researcher blinded to the experimental condition. Neurite initiation was measured by a single parameter (proportion of neurons with neurites longer than the soma diameter). Neurite elongation was measured by batch processing (HCA-Vision software; CSIRO Mathematical and Information Sciences, North Ryde, NSW, Australia) to obtain four parameters—Root number: number of primary neurites; Maximum length: length of longest neurite; Branch points: number of neurite branch points; and Total length: sum of neurite lengths (Kalous and Keast, [2010]; Kalous et al., [2012]). The number of neurons of each immunocytochemical class counted on each coverslip (technical replicates) was 50 for neurite initiation and 20 for neurite elongation. A minimum of three cultures from different rats (biological replicates) were analyzed for each treatment group.
# [4] = molecular target: COMT (catechol-O-methyl transferase); test: CEREP COMT (catechol-O-methyl transferase); assay type: biochemical; settings: reference compound; Cat. No. 0457
# TrkB = molecular target: T2, TrkB (Rattus norvegicus, UniProt Q63604); test: TrkB phosphorylation assay in MG87TrkB cells; assay type: cell-based; settings: BT13 10–100 μM, BDNF positive control
# T2 construct: expressed in transfected cells; host or cells: MG87 murine fibroblasts (MG87TrkB)
# T2 sequence (Q63604 32-821): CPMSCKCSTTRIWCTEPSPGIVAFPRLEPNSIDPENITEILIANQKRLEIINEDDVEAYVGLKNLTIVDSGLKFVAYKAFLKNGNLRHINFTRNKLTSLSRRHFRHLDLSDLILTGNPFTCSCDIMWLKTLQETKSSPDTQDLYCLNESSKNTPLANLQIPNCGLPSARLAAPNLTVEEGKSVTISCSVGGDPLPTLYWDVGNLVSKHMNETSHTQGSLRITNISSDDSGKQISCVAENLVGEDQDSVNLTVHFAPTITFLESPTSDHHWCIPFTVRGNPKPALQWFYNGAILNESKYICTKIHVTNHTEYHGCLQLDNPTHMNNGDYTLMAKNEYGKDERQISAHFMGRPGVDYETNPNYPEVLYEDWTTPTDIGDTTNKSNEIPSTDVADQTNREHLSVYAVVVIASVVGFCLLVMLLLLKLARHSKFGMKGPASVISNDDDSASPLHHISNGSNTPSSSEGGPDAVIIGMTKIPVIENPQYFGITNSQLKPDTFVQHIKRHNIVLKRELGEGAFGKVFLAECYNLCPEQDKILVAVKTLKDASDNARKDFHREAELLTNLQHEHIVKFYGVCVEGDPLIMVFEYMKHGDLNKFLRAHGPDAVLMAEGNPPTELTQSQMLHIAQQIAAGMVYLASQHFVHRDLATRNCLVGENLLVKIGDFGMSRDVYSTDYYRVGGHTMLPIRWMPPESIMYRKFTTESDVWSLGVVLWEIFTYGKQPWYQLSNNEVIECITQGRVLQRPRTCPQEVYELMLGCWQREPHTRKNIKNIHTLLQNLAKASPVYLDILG
# Experimental: as §1
# [5] = system: Akt and Erk phosphorylation in MG87TrkB; test: Erk1/2 and Akt phosphorylation assay in MG87TrkB cells; assay type: cell-based, murine; settings: BT13 10–100 μM, BDNF positive control
# Experimental: as §1
# [6] = CGRP-positive neurons, vs control, BT13 100 ng/ml
molecule,measurement,setting,value
"COC[C@@H]([C@H](O)[C@H](O)C(=O)NCC[C@H](C)c1nc(/C=C/C[C@@H]2O[C@]3(C[C@@H](O)[C@@H]2C)O[C@H]([C@H](C[C@H](O)[C@H](C)[C@H](O)[C@H](C)/C=C(C)/C(C)=C/C=C/C(C)=C\C#N)OC)[C@H](OP(=O)(O)O)C3(C)C)co1)N(C)C [Calyculin A, reference compound]",IC50,[1],0.49 nM
nerve growth factor [NGF],Akt and Erk phosphorylation,[2],promoted Akt and Erk phosphorylation
same,"TrkA phosphorylation, Western blotting",TrkA,responded
same,neurite initiation or extension,"[3]; CGRP-negative neurons, ARTN 30 ng/ml, BT13 100 ng/ml",no effect
same,neurite initiation,"[3]; CGRP-positive neurons, ARTN 30 ng/ml, BT13 100 ng/ml, overnight",significantly increased
same,"neurite elongation, root number, mean difference","[3]; CGRP-positive neurons, vs control",3 ± 1
same,"neurite elongation, branch points, mean difference",[3]; [6],48 ± 3
same,"neurite elongation, maximum length, mean difference",[3]; [6],99 ± 8 μm
same,"neurite elongation, total length, mean difference",[3]; [6],"1,421 ± 108 μm"
same,proportion of DRG neurons that expressed CGRP in culture,"[3]; ARTN 30 ng/ml, BT13 100 ng/ml",did not alter
"O=C(c1cc(O)c(O)c([N+](=O)[O-])c1)c1ccccc1F [Ro 41-0960, reference compound]",IC50,[4],28 nM
B1,"TrkB phosphorylation, Western blotting",TrkB,responded
same,Akt and Erk phosphorylation,[5],promoted Akt and Erk phosphorylation
